Experimental data reported in PMC4772543, “Immune responses to Mycobacterial heat shock protein 70 accompany self-reactivity to human BiP in rheumatoid arthritis” (Scientific Reports, 2016).

Key:
HLA-DR4 transgenic mice = test: Immunization of HLA-DR4 transgenic mice with MycHSP70, serum antibody titers by ELISA; format: in vivo, mouse; settings: 100 μg MycHSP70 with complete Freund's adjuvant subcutaneously
Experimental: (§1) Figure 5 Immunization of HLA-DR4 transgenic mice with MycHSP70. (A) HLA-DR4 transgenic mice were immunized with recombinant MycHSP70. Serum anti-MycHSP70 and anti-mouse BiP antibody titers were measured in the 21 days following the first immunization. (B) Splenic CD4+ T cell proliferation from MycHSP70-immunized HLA-DR4 transgenic mice in response to MycHSP70_287–306 and BiP336–355 epitopes. Proliferation was determined by the incorporation of [3]-H thymidine. Data were representative of at least three independent trials. ***p < 0.001.
Serum antibodies were measured by ELISA as previously reported. Briefly, 96-well plates (Thermo Fisher Scientific) were coated with 5 μg/mL of each antigen and dissolved in 0.1 M NaHCO3. […]
(§2) HLA-DR4 transgenic mice were obtained from Taconic, immunized twice (day 0, 14) with 100 μg of MycHSP70 with the same volume of complete Freund’s adjuvant subcutaneously into the tails, and sacrificed on day 21. MACS-purified CD4^+ T cells (1 × 10^5/mL) were cultured with irradiated splenocytes (1 × 10^6/mL) and an antigen (10 μg/mL) in RPMI 1640 medium supplemented with 5% FCS, 2 mM L-glutamine, 100 U/ml penicillin, 100 μg/ml streptomycin, and 5 × 10^−5 M 2-mercaptoethanol in a humidified incubator at 37 °C, 5% CO2, for 72 h. ^3H-thymidine was pulsed to each well, cells were harvested after an 18-hour incubation, and analyzed with a scintillation counter.

T cells in RA = settings: cited from earlier work
Description: MycHSP70 and BiP share 50% of their amino acid sequences, and MycHSP70_287–306 is located at a position corresponding to that of the BiP-derived HLA-DR4 effector epitope. We previously identified two major BiP-derived HLA-DR4 epitopes in RA. […] MycHSP70_287–306 strongly induces proliferation and is regarded as an effector epitope. MycHSP70_287–306 and BiP336–355 share 50% of the amino acids in their core sequences, which bind HLA-DR pockets. They also share the P4V residue, whi ...

[1] = tested on: CD4+ T cells from MycHSP70-immunized HLA-DR4 transgenic mice; test: Splenic CD4+ T cell proliferation from MycHSP70-immunized HLA-DR4 transgenic mice in response to epitopes; format: cell-based, mouse; settings: antigen 10 μg/mL, 72 h, irradiated splenocytes, 3H-thymidine
Experimental: as §1, §2

Row | Substance | serum antibody titers to MycHSP70 (HLA-DR4 transgenic mice; day 0 and 14, serum day 21) | serum antibody titers to BiP (HLA-DR4 transgenic mice; day 0 and 14, serum day 21, anti-mouse BiP) | T cell type recognizing the BiP-derived HLA-DR4 epitope (T cells in RA) | CD4+ T cell proliferation in response to peptide [1]
1 | MycHSP70: recombinant Mycobacterial heat shock protein 70 (NCBI GenBank AF2122/97) | elevation | elevation |  | 
2 | RSTMKPVQKVLEDSDLKKSD [BiP336–355, reference compound] |  |  | recognized by effector T cells | significant proliferation
